Experimental data as given in PMC4335020, “Single Oral Dose Pharmacokinetics of Decursin and Decursinol Angelate in Healthy Adult Men and Women” (PLoS ONE, 2015).
Read-outs that look alike come from different tables or passages of the source.

Test: Single oral dose human plasma pharmacokinetics of D, DA and DOH after Cogni.Q
Assay type: in vivo
Conditions: for Tmax / AUC(0-t) / Cmax / half-life: human, plasma
Description: Ten healthy male and 10 female subjects were recruited by public announcement in Amarillo, TX, from January 2013 to April 2013 (see Fig. 1 CONSORT diagram). The sample size for each gender was chosen without power calculation due to the lack of prior knowledge of PK parameter variance in humans. After receiving informed consent verbally and in writing, the health status of each candidate was confirmed by health questionnaire, plasma biochemistry (hepatic and renal functions), complete blood cell count (CBC), and a physical examination by a participating academic physician. Subjects with diabetes, or pregnant, perinatal and breastfeeding women were excluded. For the 48 hours preceding study visit until the final blood draw, all subjects were instructed to avoid taking any prescription or nonprescription drugs, vitamins, and herbal/dietary supplements. Each subject was compensated for participating in the study per TTUHSC IRB approved rate.
Eligible subjects arrived at our clinical facility at 0700 (7:00 am) on the test day after a fast beginning at 2200 (10:00 pm) the previous night. After a brief review of vital signs, the nurse placed an intravenous (IV) line with saline drip in one arm of each subject. A baseline pre-dose (hour 0) blood sample was drawn through the IV line; after that subjects swallowed four Cogni.Q vegicaps with 240 mL of water at hour 0 under direct supervision. Subjects stayed at the clinical facility in their room for the next 12 hours, returning at 24 and 48 hours. Blood was drawn at baseline (hour 0) and at 0.5, 1, 2, 3, 4, 6, 8, 12, 24 and 48 hours after dosing into Vacutainer Blood Collection Tube (Becton-Dickinson, Franklin Lakes, NJ. Product Number: 367874, Sodium heparin was used as anti-coagulant). Water was allowed as desired except for within the first hour after Cogni.Q consumption. All subjects received standardized meals at post-dose hours 4.5 and 9.5 but no food was allowed for at least the first 4 hours post-dose.
Plasma was prepared by centrifuging the heparinized blood at 1000 g for 15 minutes at room temperature. Urine samples (40mL) were collected within time spans of 0–4, 4–8, 8–12 and 12–24 hours (total volume of urine was recorded). All plasma and urine samples were put on dry ice immediately and then stored at -80°C freezer until analysis.
Plasma samples were extracted with a validated solid supported liquid extraction (SLE) method facilitated with a positive pressure manifold (Biotage, Charlotte, NC). Briefly, 100 μL of plasma sample was spiked with 5 μL of 10 ng/μL prednisolone (IS), diluted with 200 μL of LC-MS grade water, mixed and loaded onto ISOLUTE SLE+ 400 μL Array Well cartridges (Biotage, Charlotte, NC). A pulse of minimum positive pressure was applied to facilitate the samples absorption into the cartridges. After the samples were allowed to absorb for 5 min, the compounds were eluted with 2×500 μL tert-butyl methyl ether. The eluent was dried in a Speedvac and the resulting residue was reconstituted in 50 μL of methanol for UHPLC-MS/MS analysis.
Eight-point calibration curves were constructed for D, DA and DOH, at concentrations of 0.1, 0.5, 1, 5, 10, 20, 50 and 100 μg/L for D and DA, and at concentrations of 1, 5, 10, 50, 100, 200, 500 and 1000 μg/L for DOH, respectively. The linear range was 0.1–100 μg/L (0.3–300 nmol/L), 0.1–100 μg/L (0.3–300 nmol/L) and 1–1000 μg/L (4–4000 nmol/L) for D, DA and DOH, respectively. The inter- and intra-assay CV were lower than 6.5% and the accuracy was between 90–105%. Calibration curve was run for each batch of samples analyzed. The mean calibration curve correlation coefficient (r) for D, DA and DOH was 0.999, 0.999 and 0.998, respectively (data from 7–10 calibration curves). In addition, 70% of the plasma samples were extracted and analyzed twice, the data from two replicate analyses were nearly identical and combined for final data analyses and presentation. […]

SMILES: C/C=C(/C)C(=O)O[C@H]1Cc2cc3ccc(=O)oc3cc2OC1(C)C [DA, decursinol angelate]
- Tmax (oral, 4 Cogni.Q vegicaps, subject S9 (158 lb), read-out: Tmax): 1 h
- AUC(0-t) (oral, 4 Cogni.Q vegicaps, subject S10 (185 lb), read-out: AUC0-48h): 115 nmol·h/L
- Cmax (oral, 4 Cogni.Q vegicaps, subject S10 (185 lb), read-out: Cmax): 7 nM
- half-life (oral, 4 Cogni.Q vegicaps, subject S10 (185 lb), read-out: Terminal t1/2, h (converted)): 13.3 h
- Tmax (oral, 4 Cogni.Q vegicaps, subject S10 (185 lb), read-out: Tmax): 2 h
- AUC(0-t) (oral, 4 Cogni.Q vegicaps, subject S11 (178 lb), read-out: AUC0-48h): 168 nmol·h/L
- Cmax (oral, 4 Cogni.Q vegicaps, subject S11 (178 lb), read-out: Cmax): 29.7 nM
- half-life (oral, 4 Cogni.Q vegicaps, subject S11 (178 lb), read-out: Terminal t1/2, h (converted)): 14.2 h
- Tmax (oral, 4 Cogni.Q vegicaps, subject S11 (178 lb), read-out: Tmax): 1 h
- AUC(0-t) (oral, 4 Cogni.Q vegicaps, subject S12 (169 lb), read-out: AUC0-48h): 150 nmol·h/L
- Cmax (oral, 4 Cogni.Q vegicaps, subject S12 (169 lb), read-out: Cmax): 16.8 nM
- half-life (oral, 4 Cogni.Q vegicaps, subject S12 (169 lb), read-out: Terminal t1/2, h (converted)): 40.2 h
- Tmax (oral, 4 Cogni.Q vegicaps, subject S12 (169 lb), read-out: Tmax): 2 h
- AUC(0-t) (oral, 4 Cogni.Q vegicaps, subject S13 (192 lb), read-out: AUC0-48h): 106 nmol·h/L
- Cmax (oral, 4 Cogni.Q vegicaps, subject S13 (192 lb), read-out: Cmax): 11.2 nM
- half-life (oral, 4 Cogni.Q vegicaps, subject S13 (192 lb), read-out: Terminal t1/2, h (converted)): 12.7 h
- Tmax (oral, 4 Cogni.Q vegicaps, subject S13 (192 lb), read-out: Tmax): 1 h
- AUC(0-t) (oral, 4 Cogni.Q vegicaps, subject S14 (200 lb), read-out: AUC0-48h): 96.4 nmol·h/L
- Cmax (oral, 4 Cogni.Q vegicaps, subject S14 (200 lb), read-out: Cmax): 24.4 nM
- half-life (oral, 4 Cogni.Q vegicaps, subject S14 (200 lb), read-out: Terminal t1/2, h (converted)): 12.6 h
- Tmax (oral, 4 Cogni.Q vegicaps, subject S14 (200 lb), read-out: Tmax): 1 h
- AUC(0-t) (oral, 4 Cogni.Q vegicaps, subject S15 (177 lb), read-out: AUC0-48h): 512 nmol·h/L
- Cmax (oral, 4 Cogni.Q vegicaps, subject S15 (177 lb), read-out: Cmax): 196 nM
- half-life (oral, 4 Cogni.Q vegicaps, subject S15 (177 lb), read-out: Terminal t1/2, h (converted)): 18.7 h
- Tmax (oral, 4 Cogni.Q vegicaps, subject S15 (177 lb), read-out: Tmax): 1 h
- Tmax (oral, 4 Cogni.Q vegicaps, subject S16 (175 lb), read-out: Tmax): 3 h
- AUC(0-t) (oral, 4 Cogni.Q vegicaps, subject S17 (147 lb), read-out: AUC0-48h): 593 nmol·h/L
- Cmax (oral, 4 Cogni.Q vegicaps, subject S17 (147 lb), read-out: Cmax): 104 nM
- half-life (oral, 4 Cogni.Q vegicaps, subject S17 (147 lb), read-out: Terminal t1/2, h (converted)): 24.2 h
- Tmax (oral, 4 Cogni.Q vegicaps, subject S17 (147 lb), read-out: Tmax): 2 h
- half-life (oral, 4 Cogni.Q vegicaps, subject S18 (180 lb), outlier, excluded from means, read-out: Terminal t1/2, h (converted)): 55.7 h
- AUC(0-t) (oral, 4 Cogni.Q vegicaps, subject S18 (180 lb), read-out: AUC0-48h): 48.1 nmol·h/L
- Cmax (oral, 4 Cogni.Q vegicaps, subject S18 (180 lb), read-out: Cmax): 3 nM
- Tmax (oral, 4 Cogni.Q vegicaps, subject S18 (180 lb), read-out: Tmax): 4 h
- AUC(0-t) (oral, 4 Cogni.Q vegicaps, subject S19 (130 lb), read-out: AUC0-48h): 87.7 nmol·h/L
- Cmax (oral, 4 Cogni.Q vegicaps, subject S19 (130 lb), read-out: Cmax): 6.9 nM
- half-life (oral, 4 Cogni.Q vegicaps, subject S19 (130 lb), read-out: Terminal t1/2, h (converted)): 16 h
- Tmax (oral, 4 Cogni.Q vegicaps, subject S19 (130 lb), read-out: Tmax): 4 h
- half-life (oral, subject S16 (175 lb), outlier, excluded from means, read-out: Terminal t1/2, h (converted)): 190 h
- AUC(0-t) (oral, subject S16 (175 lb), read-out: AUC0-48h): 68.4 nmol·h/L
- Cmax (oral, subject S16 (175 lb), read-out: Cmax): 4.3 nM
- AUC(0-t) (oral, subject S20 (200 lb), read-out: AUC0-48h): 170 nmol·h/L
- Cmax (oral, subject S20 (200 lb), read-out: Cmax): 17.2 nM
- half-life (oral, subject S20 (200 lb), read-out: Terminal t1/2, h (converted)): 18.8 h
- Tmax (oral, subject S20 (200 lb), read-out: Tmax): 2 h
- conversion of D/DA to DOH (humans, from plasma AUC0–48h values): > 98%
- AUC(0-t) (male, oral, 4 Cogni.Q vegicaps, Men n=10 (S1 Table), read-out: AUC0-48h, Mean): 327 nmol·h/L
- Cmax (male, oral, 4 Cogni.Q vegicaps, Men n=10 (S1 Table), read-out: Cmax, nM, Mean): 52.2 nM
- Tmax (male, oral, 4 Cogni.Q vegicaps, Men n=10 (S1 Table), read-out: Tmax, h, Mean): 2.1 h
- half-life (male, oral, Men, outliers excluded (S1 Table), read-out: Terminal t1/2, h, Mean (converted)): 14.9 h
- AUC(0-t) (male, po, Men N = 10, single oral dose Cogni.Q, read-out: AUC0–48h, h.nmol/L Mean (SD)): 327 nmol·h/L
- Cmax (male, po, Men N = 10, single oral dose Cogni.Q, read-out: Cmax, nmol/L, Mean (SD)): 52.2 nM
- Tmax (male, po, Men N = 10, single oral dose Cogni.Q, read-out: Tmax, h, Mean (SD)): 2.1 h
- half-life (male, po, Men, outlier subjects excluded, single oral dose Cogni.Q, read-out: T1/2, h, terminal Mean (SD) (converted)): 14.9 h
- difference in C max among subjects in the same gender (same gender): more than 20 fold
